In one experiment the test system is His6-MNMR-His6. The experiment can be described thus: Steady-state kinetics, ketoreductase activity by NADPH oxidation monitoring. Format: biochemical, Mentha piperita. The conditions noted are these: NADPH oxidation at 340 nm, 25° C., monoterpenoid 1 mM. The method, then: (§1) The concentration of nicotinamide coenzymes (Melford) was determined by the extinction coefficient method (ε340=[…]). Steady-state kinetic analyses were performed on a Cary UV-50 Bio UV/Vis scanning spectrophotometer using a quartz cuvette (1 mL; HelIma) with a 1 cm path length. Standard reactions (1 mL) were performed in buffer (50 mM Tris pH 7.0) containing NADPH (50-100 μM for MMR/MNMR and NtDBR, respectively), monoterpenoid (1 mM) and enzyme (30 nM to 2 μM). Reactions were followed by continuously monitoring NADPH oxidation at 340 nm for 1 min at 25° C. The standard monoterpenoid substrates used were pulegone for NtDBR (alkene reduction) and menthone/isomenthone for both MMR and MNMR (ketoreduction). Ketoreductase reactions were performed in an alternative buffer (12.5 mM tri-sodium citrate, 12.5 mM KH2PO4, 12.5 mM K2HPO4and 12.5 mM CHES) containing dithiothreitol (1 mM; DTT). All steady state reactions were performed in at least duplicate.
(§2) The cloning strategies enable the rapid generation and manipulation of multi-gene expression constructs from individual ‘components’, including the presence of repeated sequences of relatively high GC content. Initially, the three ‘mint’ pathway recombinant enzymes (NtDBR, MMR and MNMR) were purified, and preliminary biocatalytic ability of each was assessed to test their functionality when produced in a bacterial system. The three genes encoding these plant enzymes were first codon-optimised for E. coli and cloned into pET21b to generate C-His6-tagged recombinant enzymes. After production and purification, each enzyme was tested for activity under steady state conditions, via indirect NADPH oxidation monitoring.

The subject of the next experiment is MMR-His6. Described as above. The class given is biochemical, Mentha piperita. The settings on record: NADPH oxidation at 340 nm, 25° C., monoterpenoid 1 mM. The method, then: as §1, §2
The next experiment concerns MMR. The settings on record: Davis et al. 2005; cited from earlier work.
The target of another experiment is T1, NtDBR-His6 (Nicotiana tabacum, UniProt Q9SLN8).
T1 construct: made in house; host or cells: E. coli BL21(DE3)pLysS
The experiment can be described thus: Steady-state kinetics, ene-reductase activity by NADPH oxidation monitoring. Format: biochemical. The conditions noted are these: NADPH oxidation at 340 nm, 25° C., monoterpenoid 1 mM, 50 mM Tris pH 7.0. As to the method: as §1
The cloning strategies enable the rapid generation and manipulation of multi-gene expression constructs from individual ‘components’, including the presence of repeated sequences of relatively high GC content. Initially, the three ‘mint’ pathway recombinant enzymes (NtDBR, MMR and MNMR) were purified, and preliminary biocatalytic ability of each was assessed to test their functionality when produced in a bacterial system. […]

T1 sequence (Q9SLN8 whole entry): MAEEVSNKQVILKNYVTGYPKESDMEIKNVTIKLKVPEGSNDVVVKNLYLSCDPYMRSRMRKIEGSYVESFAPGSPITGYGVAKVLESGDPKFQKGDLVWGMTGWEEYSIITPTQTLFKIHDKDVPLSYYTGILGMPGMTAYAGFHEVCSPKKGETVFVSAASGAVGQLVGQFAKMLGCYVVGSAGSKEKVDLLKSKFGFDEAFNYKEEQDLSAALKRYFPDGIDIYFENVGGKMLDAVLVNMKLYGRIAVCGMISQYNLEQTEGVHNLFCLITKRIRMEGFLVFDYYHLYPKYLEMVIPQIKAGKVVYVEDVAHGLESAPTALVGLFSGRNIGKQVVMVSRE

With `CC(C)[C@@H]1CC[C@@H](C)CC1=O` [(2S,5R)-menthone, (2S,5R)-trans-2-Isopropyl-5-methylcyclohexanone], the Ketoreductase activity worked out at 0.96 s⁻¹ with His6-MNMR-His6 and 1.63 s⁻¹ in the experiment with MMR-His6. Besides, the “specificity for menthone over isomenthone” value in the experiment with MMR is listed as 10 fold.

In the case of `CC(C)=C1CC[C@@H](C)CC1=O` [(5R)-pulegone], the ene-reductase activity at NtDBR-His6 was less than 0.1 s⁻¹.

On to `CC(C)[C@H]1CC[C@@H](C)CC1=O` [(2R,5R)-isomenthone], for which the Ketoreductase activity in the experiment on His6-MNMR-His6 was 0.20 s⁻¹; with MMR-His6, 2.00 s⁻¹.
